# pIC50: −log10 of the molar value.
# Tests used:
# Saccharomyces cerevisiae [1] = experiment: Inhibition of binding of pea lectins to yeast mannan by compound was measured using peroxidase-labeled lectin assay, activity expressed relative to 2-Hydroxymethyl-6-methoxy-tetrahydro-pyran-3,4,5-triol
# Saccharomyces cerevisiae [2] = experiment: Inhibition of binding of concanavalin A to yeast mannan by compound was measured using peroxidase-labeled lectin assay, expressed relative to 2-Hydroxymethyl-6-methoxy-tetrahydro-pyran-3,4,5-triol
# [3] = Inhibition of binding of concanavalin A to yeast mannan by compound was measured using peroxidase-labeled lectin assay,; design: species or system Saccharomyces cerevisiae
# [4] = Inhibition of binding of pea lectins to yeast mannan by compound was measured using peroxidase-labeled lectin assay; design: species or system Saccharomyces cerevisiae
SMILES,Relative potency (Saccharomyces cerevisiae [1]),Relative potency (Saccharomyces cerevisiae [2]),pIC50 [3],pIC50 [4]
CO[C@H]1O[C@H](CO)[C@@H](O)[C@H](O)[C@H]1O,1,1,3.03,2.41
C=CCO[C@H]1O[C@@H](CO)[C@@H](O)[C@H](O)[C@H]1O,4.1,3.5,3.58,3.03
O=[N+]([O-])c1ccc(O[C@H]2O[C@H](CO)[C@@H](O)[C@H](O)[C@H]2O)cc1,2.6,8.7,3.97,< 2.82

# Now those with a higher pIC50 [3], led by results:
Relative potency (Saccharomyces cerevisiae [1]),Relative potency (Saccharomyces cerevisiae [2]),pIC50 [3],pIC50 [4],SMILES
29.8,138,5.17,3.89,COC(=O)c1cc(N/C(S)=N/CCSCCCO[C@H]2O[C@@H](CO)[C@@H](O)[C@H](O)[C@H]2O)cc(N/C(S)=N/CCSCCCO[C@H]2O[C@@H](CO)[C@@H](O)[C@H](O)[C@H]2O)c1
20.8,30.3,4.52,3.73,O=C(O)c1cc(N/C(S)=N/CCSCCCO[C@H]2O[C@@H](CO)[C@@H](O)[C@H](O)[C@H]2O)cc(N/C(S)=N/CCSCCCO[C@H]2O[C@@H](CO)[C@@H](O)[C@H](O)[C@H]2O)c1
6.7,25,4.43,3.24,O=C(CCCCC/N=C(\S)Nc1ccc(O[C@H]2O[C@@H](CO)[C@@H](O)[C@H](O)[C@H]2O)cc1)Nc1cc(NC(=O)CCCCC/N=C(\S)Nc2ccc(O[C@H]3O[C@@H](CO)[C@@H](O)[C@H](O)[C@H]3O)cc2)cc(C(=O)O)c1

# — ChEMBL document CHEMBL1129128, “Synthesis of divalent -D-mannopyranosylated clusters having enhanced binding affinities towards concanavalin A and pea lectins” (Bioorg Med Chem Lett, 1996)
